{
  "source": "patent US20150335738A1",
  "about": "(priority 2012, published 2015)",
  "test_system": "human SIgA in faeces",
  "assay_type": "in vivo",
  "data": [
    {"smiles": "CC1=C(/C=C/C(C)=C/C=C/C(C)=C/C=C/C=C(C)/C=C/C=C(C)/C=C/C2=C(C)CCCC2(C)C)C(C)(C)CCC1", "note": "[Beta-carotene, beta-carotene]", "values": [
      {"measurement": "SIgA faeces, 3 days before exercise", "setting": "3 days before exercise", "value": "88 micrograms per 100 g faeces"},
      {"measurement": "Recovery in faeces", "setting": "Reference (before exercise) = 100%", "value": 13, "unit": "%"},
      {"measurement": "SIgA faeces, day 1 after exercise", "setting": "day 1 after exercise", "value": "8 micrograms per 100 g faeces"},
      {"measurement": "SIgA faeces, day 6 after exercise", "setting": "day 6 after exercise", "value": "11 micrograms per 100 g faeces"}
    ]}
  ]
}
